The values below come from US20260048093A1, “COMBINATION THERAPY OF MIXED HERBAL EXTRACT AND DOCETAXEL FOR PREVENTING OR TREATING CANCER” (JAEIN R&P INC., priority 2022, published 2026).

Structures are written as SMILES.

Series [1] concerns BT-20 (TNBC, triple-negative breast cancer, non-invasive). Nature of the series: MTT assay, viability and combination index in BT-20 cells. In kind it is cell-based. The note with it: 24 hours, SH003 100, 300, 500 μg/mL, DTX 1, 10, 100, 1000 nM.
Procedure: (§3) Thereafter, a 3-(4,5-Dimethylthiazol-2-yl)-2,5-diphenyltetrazolium bromide (MTT) reagent was treated in each cell, the cells were further incubated for 4 hours, and then a supernatant was removed and 100 μL of dimethyl sulfoxide (DMSO) was added. Finally, absorbance was measured at a wavelength of 590 nm and the absorbance value was compared with a control group which was not treated with any material.
Fa indicates the inhibition rate.
Series [2] relates to MDA-MB-231 (TNBC, highly metastatic). Nature of the series: MTT assay, viability and combination index in MDA-MB-231 cells. It counts as cell-based. The following applies: 24 hours, SH003 100, 300, 500 μg/mL, DTX 1, 10, 100, 1000 nM.
Procedure: as §3
Fa indicates the inhibition rate.
For the next series, the system named is BT-20 tumor xenograft. Nature of the series: BT-20 tumor xenograft mouse model. The note with it: BT-20 xenograft mice. It counts as in vivo, BALB/c nude mice. The method, then: The effect of the combined administration of the mixed extract of the present invention and docetaxel was investigated in an animal model. All animal studies were approved by Kyung Hee University-Institutional Animal Care & Use Committee (KHU-IACUC). Five-week-old female BALB/c nude mice were purchased from Nara Biotech (Seoul, Republic of Korea). The mice were allowed free access to food and water and were housed in appropriate isolation cages at room temperature (22-25° C.) under a 12-h light/12-h dark cycle in the absence of pathogens. In order to establish a tumor xenograft mouse model, BT-20 cell suspension (1×10^7 cells) in 100 μL PBS was subcutaneously inoculated into the right flank of the mice. The mice were divided into four groups: control group (n=3), SH003 (n=4), DTX (n=4), and SH003+DTX (n=5). When the tumor volume reached 100 mm^3, the drug was injected. DTX was administered intravenously via the tail vein once a week at 15.277 mg/kg, while DMSO was administered to the control or SH003 single-administration group. SH003 was administered orally at 557.569 mg/kg three times a week, while saline was administered to the control or DTX single-administration group. The body weight was measured three times a week, and tumor volume was analyzed daily for 17 days.
Subsequently, the mice were euthanized and the tumors were isolated. […]

The test system of series [3] is H460 non-small cell lung cancer cell line. The series can be described thus: WST colorimetric assay, viability and combination index in H460 cells. The note with it: 24, 48 and 72 hours. It counts as cell-based.
Procedure: Specifically, a total of 10^5 cells per well were seeded in a 6-well plate before treatment. […] After treatment, the cells were incubated with WST for 1 hour, and then the absorbance was measured at 450 nm using an ELISA reader (Molecular Devices, Palo Alto, CA, USA).
Fa indicates the inhibition rate.
In series [4] the test system is A549 non-small cell lung cancer cell line. Nature of the series: WST colorimetric assay, viability in A549 cells. The note with it: 24, 48 and 72 hours. It counts as cell-based.
Procedure: Specifically, a total of 10^5 cells per well were seeded in a 6-well plate before treatment. After 24 hours, the cells were treated with SH003 (100, 300, and 500 μg/mL), DTX (1, 10, 100, and 1000 nM), or a combination thereof for 24, 48, and 72 hours. […] After treatment, the cells were incubated with WST for 1 hour, and then the absorbance was measured at 450 nm using an ELISA reader (Molecular Devices, Palo Alto, CA, USA).
For a further series, the system named is H460 cells. Nature of the series: Annexin V/7-AAD apoptosis in H460 cells. In kind it is cell-based. The following applies: 24 hours. The method, then: (§1) In order to investigate the effect of increasing apoptosis by combined administration of the mixed extract of the present invention and docetaxel, Annexin V/7-AAD double staining was used for analysis.
(§2) Specifically, H460 and A549 cells were stained with Annexin V and then stained with 7-AAD in the dark for 15 minutes at room temperature, and then the stained cells were detected by FACSCalibur (BD Biosciences, San Jose, CA, USA), and the apoptotic cells were analyzed using CellQuest Pro version 5.2 (BD Biosciences, San Jose, CA, USA) software. The results are illustrated in FIG. 3.

The subject of a further series is A549 cells. The series can be described thus: Annexin V/7-AAD apoptosis in A549 cells. In kind it is cell-based. The note with it: 24 hours. The method, then: as §1, §2
A further series has as its system H460 tumor xenograft. The series can be described thus: H460 tumor xenograft mouse model. The following applies: H460 xenograft mice. In kind it is in vivo, Balb/c nude mice. The method, then:
The effect of the combined administration of the mixed extract of the present invention and docetaxel was investigated in an animal model. All procedures of animal experimentation, including maintenance and euthanasia, were approved by Kyung Hee University Institutional Animal Care and Use Committee (KHU-IACUC-KHSASP-21-211). Five-week-old male Balb/c nude mice were purchased from Nara Biotech (Seoul, Republic of Korea) and acclimated to a 12-h light/dark cycle at 22-23° C. and 40-60% humidity. The mice were divided into four groups: control (n=3), SH003 administration (n=4), DTX administration (n=4), and combined administration (n=5). In order to establish a tumor xenograft mouse model, H460 cell suspension (1×10^7 cells) in 100 μL PBS was subcutaneously inoculated into the right flank of the mice. Thereafter, 200 μL of SH003 (557.569 mg/kg) was administered orally three times a week, and 50 μL DTX (15.277 mg/kg) was administered intravenously via the tail vein once a week for 3 weeks. Saline and DMSO were used as vehicles. The body weight was measured three times a week, and tumor volume was analyzed daily. On day 21, the mice were sacrificed using carbon dioxide and cervical dislocation was performed. Tumor tissues were isolated after euthanasia. […]

The test system of series [5] is gastric cancer cell line AGS. Nature of the series: Cell survival rate and combination index in AGS cells. In kind it is cell-based.

Turning to `CC(=O)O[C@@]12CO[C@@H]1C[C@H](O)[C@@]1(C)C(=O)[C@H](O)C3=C(C)[C@@H](OC(=O)[C@H](O)[C@@H](NC(=O)OC(C)(C)C)c4ccccc4)C[C@@](O)([C@@H](OC(=O)c4ccccc4)[C@H]21)C3(C)C` [DTX, Docetaxel], the “viability of BT-20 cells” value in [1] is “decreased the viability”. For the same molecule, in series [2], the “viability of MDA-MB-231 cells” value is “decreased the viability”. In addition, the body weight entry in the series on BT-20 tumor xenograft and in the series with H460 tumor xenograft was “did not have an effect” throughout. Further, in series [3], the H460 cell growth entry is recorded as “inhibited H460 cell growth in a dose-dependent manner”. Also, the A549 cell growth entry in series [4] was “inhibited A549 cell growth in a dose-dependent manner”. In addition, the “apoptosis compared to the control group (in words)” value in the series with H460 cells and in the series on A549 cells was “did not significantly affect” throughout. In addition, the “AGS cell survival rate” value in [5] is listed as “decreased in a concentration-dependent manner”.
